Source: patent publication US9738634B2, “Heterocyclic amide compound and herbicide” (SYNGENTA PARTICIPATIONS AG, priority 2013, dated 2017)

Key:
Type in all cases: in vivo
Conditions in all cases: treatment dosage 320 g/ha
barnyard grass [1] = experiment: Test Example 1: weedkilling efficacy, preemergent weed treatment in the submerged state; A: barnyard grass
In short: (§1)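 Pre-emergence paddy test: weed seeds sown in submerged alluvial soil (4 cm water), 2.5-leaf rice transplanted, water-diluted emulsion applied to water surface at sowing at stated g/ha. Scored at 3 weeks, greenhouse 25–30 °C.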

bulrush [2] = experiment: Test Example 1: weedkilling efficacy, preemergent weed treatment in the submerged state; B: bulrush
In short: as §1

oval-leafed pondweed [3] = experiment: Test Example 1: weedkilling efficacy, preemergent weed treatment in the submerged state; C: oval-leafed pondweed
In short: as §1

transplanted rice = experiment: Test Example 1: preemergent weed treatment in the submerged state, effect on crop; a: transplanted rice
In short: as §1

barnyard grass [4] = experiment: Test Example 2: weedkilling efficacy, growth period weed treatment in the submerged state; A: barnyard grass
In short: (§2)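 Seedlings at 1-2 leaves in 4 cm-deep submerged alluvial soil received emulsion formulations on the water surface, dosed per hectare; effects were judged 3 weeks on.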

bulrush [5] = experiment: Test Example 2: weedkilling efficacy, growth period weed treatment in the submerged state; B: bulrush
In short: as §2

oval-leafed pondweed [6] = experiment: Test Example 2: weedkilling efficacy, growth period weed treatment in the submerged state; C: oval-leafed pondweed
In short: as §2

crabgrass [7] = experiment: Test Example 3: weedkilling efficacy through soil treatment; D: crabgrass
In short: (§3)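 Crop and weed responses were judged three weeks after a uniform surface spray of the water-diluted emulsion at the given g/ha rate. Seeds sat beneath about 1.5 cm of sterilized diluvial soil, and boxes stood in a greenhouse at 25 to 30° C.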

green foxtail [8] = experiment: Test Example 3: weedkilling efficacy through soil treatment; E: green foxtail
In short: as §3

barnyard grass [9] = experiment: Test Example 3: weedkilling efficacy through soil treatment; F: barnyard grass
In short: as §3

wild oat [10] = experiment: Test Example 3: weedkilling efficacy through soil treatment; G: wild oat
In short: as §3

black-grass [11] = experiment: Test Example 3: weedkilling efficacy through soil treatment; H: black-grass
In short: as §3

Italian ryegrass [12] = experiment: Test Example 3: weedkilling efficacy through soil treatment; I: Italian ryegrass
In short: as §3

common wind-grass [13] = experiment: Test Example 3: weedkilling efficacy through soil treatment; J: common wind-grass
In short: as §3

Indian mallow [14] = experiment: Test Example 3: weedkilling efficacy through soil treatment; K: Indian mallow
In short: as §3

redroot pigweed [15] = experiment: Test Example 3: weedkilling efficacy through soil treatment; L: redroot pigweed
In short: as §3

fig-leafed goosefoot [16] = experiment: Test Example 3: weedkilling efficacy through soil treatment; M: fig-leafed goosefoot
In short: as §3

chickweed [17] = experiment: Test Example 3: weedkilling efficacy through soil treatment; N: chickweed
In short: as §3

catchweed [18] = experiment: Test Example 3: weedkilling efficacy through soil treatment; O: catchweed
In short: as §3

birds-eye speedwell = experiment: Test Example 3: weedkilling efficacy through soil treatment; p: birds-eye speedwell
In short: as §3

directly sown rice [19] = experiment: Test Example 3: soil treatment, effect on crop; b: directly sown rice
In short: as §3

corn [20] = experiment: Test Example 3: soil treatment, effect on crop; c: corn
In short: as §3

soybean [21] = experiment: Test Example 3: soil treatment, effect on crop; d: soybean
In short: as §3

wheat [22] = experiment: Test Example 3: soil treatment, effect on crop; e: wheat
In short: as §3

beet [23] = experiment: Test Example 3: soil treatment, effect on crop; f: beet
In short: as §3

rapeseed [24] = experiment: Test Example 3: soil treatment, effect on crop; g: rapeseed
In short: as §3

crabgrass [25] = experiment: Test Example 4: weedkilling efficacy by foliar treatment; D: crabgrass
In short: (§4)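 Seeds are spot-sown into sterilized diluvial soil and covered with about 1.5 cm of soil. After 14 days' greenhouse growth at 25 to 30° C, plants are sprayed on stems and leaves with diluted emulsion at the stated g/ha rate, then scored at 3 weeks.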

green foxtail [26] = experiment: Test Example 4: weedkilling efficacy by foliar treatment; E: green foxtail
In short: as §4

barnyard grass [27] = experiment: Test Example 4: weedkilling efficacy by foliar treatment; F: barnyard grass
In short: as §4

wild oat [28] = experiment: Test Example 4: weedkilling efficacy by foliar treatment; G: wild oat
In short: as §4

black-grass [29] = experiment: Test Example 4: weedkilling efficacy by foliar treatment; H: black-grass
In short: as §4

Italian ryegrass [30] = experiment: Test Example 4: weedkilling efficacy by foliar treatment; I: Italian ryegrass
In short: as §4

common wind-grass [31] = experiment: Test Example 4: weedkilling efficacy by foliar treatment; J: common wind-grass
In short: as §4

Indian mallow [32] = experiment: Test Example 4: weedkilling efficacy by foliar treatment; K: Indian mallow
In short: as §4

redroot pigweed [33] = experiment: Test Example 4: weedkilling efficacy by foliar treatment; L: redroot pigweed
In short: as §4

fig-leafed goosefoot [34] = experiment: Test Example 4: weedkilling efficacy by foliar treatment; M: fig-leafed goosefoot
In short: as §4

chickweed [35] = experiment: Test Example 4: weedkilling efficacy by foliar treatment; N: chickweed
In short: as §4

catchweed [36] = experiment: Test Example 4: weedkilling efficacy by foliar treatment; O: catchweed
In short: as §4

directly sown rice [37] = experiment: Test Example 4: foliar treatment, effect on crop; b: directly sown rice
In short: as §4

corn [38] = experiment: Test Example 4: foliar treatment, effect on crop; c: corn
In short: as §4

soybean [39] = experiment: Test Example 4: foliar treatment, effect on crop; d: soybean
In short: as §4

wheat [40] = experiment: Test Example 4: foliar treatment, effect on crop; e: wheat
In short: as §4

beet [41] = experiment: Test Example 4: foliar treatment, effect on crop; f: beet
In short: as §4

rapeseed [42] = experiment: Test Example 4: foliar treatment, effect on crop; g: rapeseed
In short: as §4

## CC1=C(c2ccccc2)C(=O)N(C(C)(C)C(=O)Nc2ccc(F)cn2)CO1 [B-2-26]
Barnyard grass [1]
  A (barnyard grass) weedkilling efficacy grade: 5 (weed kill ratio 90% or more, (practically complete withering))
Bulrush [2]
  B (bulrush) weedkilling efficacy grade: 5 (weed kill ratio 90% or more, (practically complete withering))
oval-leafed pondweed [3]
  C (oval-leafed pondweed) weedkilling efficacy grade: 5 (weed kill ratio 90% or more, (practically complete withering))
Transplanted rice
  a (transplanted rice) effect on crop grade: 0 (weed kill ratio 5% or less (practically no effect))
Barnyard grass [4]
  A (barnyard grass) weedkilling efficacy grade: 5 (weed kill ratio 90% or more, (practically complete withering))
Bulrush [5]
  B (bulrush) weedkilling efficacy grade: 5 (weed kill ratio 90% or more, (practically complete withering))
oval-leafed pondweed [6]
  C (oval-leafed pondweed) weedkilling efficacy grade: 5 (weed kill ratio 90% or more, (practically complete withering))
Crabgrass [7]
  D (crabgrass) weedkilling efficacy grade: 5 (weed kill ratio 90% or more, (practically complete withering))
Green foxtail [8]
  E (green foxtail) weedkilling efficacy grade: 5 (weed kill ratio 90% or more, (practically complete withering))
Barnyard grass [9]
  F (barnyard grass) weedkilling efficacy grade: 5 (weed kill ratio 90% or more, (practically complete withering))
Wild oat [10]
  G (wild oat) weedkilling efficacy grade: 1 (weed kill ratio 5% or more, less than 20%)
black-grass [11]
  H (black-grass) weedkilling efficacy grade: 5 (weed kill ratio 90% or more, (practically complete withering))
Italian ryegrass [12]
  I (Italian ryegrass) weedkilling efficacy grade: 5 (weed kill ratio 90% or more, (practically complete withering))
Common wind-grass [13]
  J (common wind-grass) weedkilling efficacy grade: 5 (weed kill ratio 90% or more, (practically complete withering))
Indian mallow [14]
  K (Indian mallow) weedkilling efficacy grade: 0 (weed kill ratio 5% or less (practically no effect))
Redroot pigweed [15]
  L (redroot pigweed) weedkilling efficacy grade: 4 (weed kill ratio 70% or more, less than 90%)
fig-leafed goosefoot [16]
  M (fig-leafed goosefoot) weedkilling efficacy grade: 4 (weed kill ratio 70% or more, less than 90%)
Chickweed [17]
  N (chickweed) weedkilling efficacy grade: 3 (weed kill ratio 40% or more, less than 70%)
Catchweed [18]
  O (catchweed) weedkilling efficacy grade: 2 (weed kill ratio 20% or more, less than 40%)
birds-eye speedwell
  P (birds-eye speedwell) weedkilling efficacy grade: 0 (weed kill ratio 5% or less (practically no effect))
Directly sown rice [19]
  b (directly sown rice) effect on crop grade: 2 (weed kill ratio 20% or more, less than 40%)
Corn [20]
  c (corn) effect on crop grade: 0 (weed kill ratio 5% or less (practically no effect))
Soybean [21]
  d (soybean) effect on crop grade: 0 (weed kill ratio 5% or less (practically no effect))
Wheat [22]
  e (wheat) effect on crop grade: 0 (weed kill ratio 5% or less (practically no effect))
Beet [23]
  f (beet) effect on crop grade: 0 (weed kill ratio 5% or less (practically no effect))
Rapeseed [24]
  g (rapeseed) effect on crop grade: 0 (weed kill ratio 5% or less (practically no effect))
Crabgrass [25]
  D (crabgrass) weedkilling efficacy grade: 3 (weed kill ratio 40% or more, less than 70%)
Green foxtail [26]
  E (green foxtail) weedkilling efficacy grade: 4 (weed kill ratio 70% or more, less than 90%)
Barnyard grass [27]
  F (barnyard grass) weedkilling efficacy grade: 3 (weed kill ratio 40% or more, less than 70%)
Wild oat [28]
  G (wild oat) weedkilling efficacy grade: 3 (weed kill ratio 40% or more, less than 70%)
black-grass [29]
  H (black-grass) weedkilling efficacy grade: 4 (weed kill ratio 70% or more, less than 90%)
Italian ryegrass [30]
  I (Italian ryegrass) weedkilling efficacy grade: 3 (weed kill ratio 40% or more, less than 70%)
Common wind-grass [31]
  J (common wind-grass) weedkilling efficacy grade: 5 (weed kill ratio 90% or more, (practically complete withering))
Indian mallow [32]
  K (Indian mallow) weedkilling efficacy grade: 3 (weed kill ratio 40% or more, less than 70%)
Redroot pigweed [33]
  L (redroot pigweed) weedkilling efficacy grade: 4 (weed kill ratio 70% or more, less than 90%)
fig-leafed goosefoot [34]
  M (fig-leafed goosefoot) weedkilling efficacy grade: 4 (weed kill ratio 70% or more, less than 90%)
Chickweed [35]
  N (chickweed) weedkilling efficacy grade: 3 (weed kill ratio 40% or more, less than 70%)
Catchweed [36]
  O (catchweed) weedkilling efficacy grade: 3 (weed kill ratio 40% or more, less than 70%)
Directly sown rice [37]
  b (directly sown rice) effect on crop grade: 1 (weed kill ratio 5% or more, less than 20%)
Corn [38]
  c (corn) effect on crop grade: 3 (weed kill ratio 40% or more, less than 70%)
Soybean [39]
  d (soybean) effect on crop grade: 4 (weed kill ratio 70% or more, less than 90%)
Wheat [40]
  e (wheat) effect on crop grade: 0 (weed kill ratio 5% or less (practically no effect))
Beet [41]
  f (beet) effect on crop grade: 4 (weed kill ratio 70% or more, less than 90%)
Rapeseed [42]
  g (rapeseed) effect on crop grade: 1 (weed kill ratio 5% or more, less than 20%)
